Experimental data reported in patent US11787837B2, “DCHBS-active esters of PEG compounds and their use” (Novo Nordisk A/S, priority 2016, dated 2023).

Assay: Hydrolytic stability of activated side chains (hydrolysis at pH ~10.3, UPLC/HPLC area comparison at 210 nm)
Format: physicochemical
Conditions: for hydrolytic stability (in words): basic conditions, pH 10.3; for activated side chain still remaining: pH 10.3, hydrolysis times around 1100-1300 minutes
Procedure: 0.1 mmol of each activated side chain was dissolved in 1.0 mL NMP. To this solution was added 5 mL 1M NaHCO3 buffer solution adjusted to pH 10.0 with NaOH. Solution was stirred (pH ˜10.3) with aliquots being taken at different time intervals to determine to which extent the various activated side chains were hydrolysed.
The reaction mixtures were analysed by UPLC (Example no. 2 and E—UPLC_A_1) and HPLC (Example no. 1, B, C, and D—HPLC_A_1), and the percent of hydrolysis for the various side chains was estimated by area comparison in UV detection at 210 nm. In each example, the combined areas for released activation group (peak A) and non-activated side chain (peak B), was compared to area for activated side chain (peak C). The retention times (rt-A, rt-B, and rt-C for the various peaks (peak A, peak B, and peak C) for each side chain are summarised as follows; 1 (rt-A=1.94 min, rt-B=7.18-7.25 min, rt-C=7.48 min, HPLC_A_1), 2 (rt-A=0.48 min, rt-B=2.11 min, rt-C=2.29 min, UPLC_A_1), B (only rt-B detected at time point for analysis), C (rt-A=4.40 min, rt-B=7.25 min, HPLC_A_1), D (rt-A=4.01 min, rt-B=7.25 min, rt-C=10.16 min, HPLC_A_1), E (rt-A=2.08 min, rt-B=2.10 min, rt-C=2.10 min, UPLC_A_1).
The hydrolytic stability of the activated side chains of Examples 1 and 8B to 8D was tested. The hydrolysis protocol from Example 9 was used for the stability test.

[1] = Table 5, hydrolysis time 1380 min, method UPLC_A_4

Structure (SMILES): O=C(O)CCCCCCCCCCCCCCCCCCC(=O)NC[C@H]1CC[C@H](C(=O)N[C@@H](CCC(=O)NCCOCCOCC(=O)NCCOCCOCC(=O)Oc2c(Cl)cc(Cl)cc2S(=O)(=O)O)C(=O)O)CC1 [Example 1, 20-[[4-[[(1S)-1-carboxy-4-[2-[2-[2-[2-[2-[2-(2,4-dichloro-6-sulfo-phenoxy)-2-oxo-ethoxy]ethoxy]ethylamino]-2-oxo-ethoxy]ethoxy]ethylamino]-4-oxo-butyl]carbamoyl]cyclohexyl]methylamino]-20-oxo-icosanoic acid]
- Hydrolysis (%) at pH 10.3 (Table 5, hydrolysis time 1269 min, method UPLC_A_1): 88.1%
- hydrolytic stability (in words): much more stable against hydrolysis
- Hydrolysis (%) at pH 10.3 (hydrolysis time 1269 min, NMP + 1M NaHCO3 buffer, pH ~10.3, HPLC_A_1): 88.1%
- activated side chain still remaining: approximately 12%

Structure (SMILES): O=C(O)CCCCCCCCCCCCCCCCC(=O)N[C@@H](CCC(=O)NCCOCCOCC(=O)NCCOCCOCC(=O)Oc1c(Cl)cc(Cl)cc1S(=O)(=O)O)C(=O)O [Example 2, 18-[[(1S)-1-carboxy-4-[2-[2-[2-[2-[2-[2-(2,4-dichloro-6-sulfo-phenoxy)-2-oxo-ethoxy]ethoxy]ethylamino]-2-oxo-ethoxy]ethoxy]ethylamino]-4-oxo-butyl]amino]-18-oxo-octadecanoic acid]
- hydrolytic stability (in words): much more stable against hydrolysis
- Hydrolysis (%) at pH 10.3 (hydrolysis time 1070 min, NMP + 1M NaHCO3 buffer, pH ~10.3, UPLC_A_1): 88.1%
- activated side chain still remaining: approximately 12%

Structure (SMILES): COCC(=O)Oc1c(Cl)cc(Cl)cc1S(=O)(=O)O [Example 8B, 3,5-dichloro-2-(2-methoxyacetyl)oxy-benzenesulfonic acid]
- Hydrolysis (%) at pH 10.3 [1]: 96%

Structure (SMILES): CN(C)S(=O)(=O)c1cc(Cl)cc(Cl)c1OC(=O)COCCOCCNC(=O)COCCOCCNC(=O)CC[C@H](NC(=O)CCCCCCCCCCCCCCCCC(=O)O)C(=O)O [Example 8C]
- Hydrolysis (%) at pH 10.3 [1]: 60%

Structure (SMILES): C#CCOCCOCCOCCOCCC(=O)Oc1c(Cl)cc(Cl)cc1S(=O)(=O)O [Example 8D, 3,5-dichloro-2-[3-[2-[2-(2-prop-2-ynoxyethoxy)ethoxy]ethoxy]propanoyloxy]benzenesulfonic acid]
- Hydrolysis (%) at pH 10.3 (Table 5, hydrolysis time 1440 min, method UPLC_A_5): 67%

Structure (SMILES): O=C(O)CCCCCCCCCCCCCCCCCCC(=O)NC[C@H]1CC[C@H](C(=O)N[C@@H](CCC(=O)NCCOCCOCC(=O)NCCOCCOCC(=O)ON2C(=O)CCC2=O)C(=O)O)CC1 [Example B, 20-[[4-[[(1S)-1-carboxy-4-[2-[2-[2-[2-[2-[2-(2,5-dioxopyrrolidin-1-yl)oxy-2-oxo-ethoxy]ethoxy]ethylamino]-2-oxo-ethoxy]ethoxy]ethylamino]-4-oxo-butyl]carbamoyl]cyclohexyl]methylamino]-20-oxo-icosanoic acid, reference compound]
- hydrolytic stability (in words): hydrolytically very unstable
- Hydrolysis (%) at pH 10.3 (hydrolysis time 0 min (within a minute), NMP + 1M NaHCO3 buffer, pH ~10.3, HPLC_A_1): Quantitative (more than 99% of the side chain being hydrolysed)

Structure (SMILES): O=C(O)CCCCCCCCCCCCCCCCCCC(=O)NC[C@H]1CC[C@H](C(=O)N[C@@H](CCC(=O)NCCOCCOCC(=O)NCCOCCOCC(=O)Oc2ccc(Cl)cc2Cl)C(=O)O)CC1 [Example C, 20-[[4-[[(1S)-1-carboxy-4-[2-[2-[2-[2-[2-[2-(2,4-dichlorophenoxy)-2-oxo-ethoxy]ethoxy]ethylamino]-2-oxo-ethoxy]ethoxy]ethylamino]-4-oxo-butyl]carbamoyl]cyclohexyl]methylamino]-20-oxo-icosanoic acid, reference compound]
- hydrolytic stability (in words): hydrolyse very fast and almost quantitatively
- Hydrolysis (%) at pH 10.3 (hydrolysis time 0.16 min, NMP + 1M NaHCO3 buffer, pH ~10.3, HPLC_A_1): Quantitative (more than 99% of the side chain being hydrolysed)

Structure (SMILES): O=C(O)CCCCCCCCCCCCCCCCCCC(=O)NC[C@H]1CC[C@H](C(=O)N[C@@H](CCC(=O)NCCOCCOCC(=O)NCCOCCOCC(=O)Oc2c(Cl)cccc2Cl)C(=O)O)CC1 [Example D, 20-[[4-[[(1S)-1-carboxy-4-[2-[2-[2-[2-[2-[2-(2,6-dichlorophenoxy)-2-oxo-ethoxy]ethoxy]ethylamino]-2-oxo-ethoxy]ethoxy]ethylamino]-4-oxo-butyl]carbamoyl]cyclohexyl]methylamino]-20-oxo-icosanoic acid, reference compound]
- hydrolytic stability (in words): hydrolyse very fast and almost quantitatively
- Hydrolysis (%) at pH 10.3 (hydrolysis time 2 min, NMP + 1M NaHCO3 buffer, pH ~10.3, HPLC_A_1): 93.4%

Structure (SMILES): O=C(O)CCCCCCCCCCCCCCCCC(=O)N[C@@H](CCC(=O)NCCOCCOCC(=O)NCCOCCOCC(=O)Oc1c(Cl)cc(S(=O)(=O)O)cc1Cl)C(=O)O [Example E, 18-[[(1S)-1-carboxy-4-[2-[2-[2-[2-[2-[2-(2,6-dichloro-4-sulfo-phenoxy)-2-oxo-ethoxy]ethoxy]ethylamino]-2-oxo-ethoxy]ethoxy]ethylamino]-4-oxo-butyl]amino]-18-oxo-octadecanoic acid, reference compound]
- Hydrolysis (%) at pH 10.3 (hydrolysis time 2.5 min, NMP + 1M NaHCO3 buffer, pH ~10.3, UPLC_A_1): Quantitative (more than 99% of the side chain being hydrolysed)
